Results from US20050170359A1, “Treatment of vascular dysfunction and alzheimer's disease” (priority 2002, published 2005).
Entries after “also recorded” stand apart in the source; their conditions may differ. Peptide text beside a SMILES is read from it. * marks the point of attachment. Cbz = O=C(OCc1ccccc1)*; CH2F = FC*

Legend:
BEC = experiment: H2O2 model of stress-induced premature senescence in young human BEC; type: cell-based
Procedure: Subconfluent BEC cultures (34 days after subculture) were treated with H2O2 by adding it to the culture medium for 2 hr. To induce senescence, sublethal doses of H2O2 were determined and selected. After treatment, cells were washed with PBS (37° C.) before harvesting, subculturing or incubating with a fresh medium or 3-D collagen gels. H2O2-treated cells were subcultured and analyzed after 1, 2, 3, 4, 5, 6, 24, 48, 72, 96 and 120 hr for expression of different proteins involved in the cell cycle regulation and apoptosis. Cells in 60 mm dishes were lysed in SDS sample buffer directly. For Western blot analysis, proteins were separated by SDS-PAGE and transferred to PVDF membrane followed by incubation with different primary antibodies (see antibodies for.Western blot analysis). SIPS BEC were also prepared for microarray analysis on U95A chips as described above.

SIPS BEC = experiment: Capillary morphogenesis in 3-D collagen gels by H2O2 stress-induced premature senescence (SIPS) BEC; type: cell-based, human
Procedure: The 3-D system has been described in detail by Davis et al. (J. Cell Sci. 114:917-930, 2001). Here, the system was used to assay the responsiveness of AD BEC and SIPS BEC to angiogenic stimulation. Briefly, 10^6 MBEC/ml were suspended within 3-D collagen matrices at 25 μl per well in the serum-free culture medium 199 containing VEGF (40 ng/ml) and bFGF (40 ng/ml) in 5% CO2 at 37° C. The cells were fixed with 3% glutaraldehyde in phosphate buffered saline. The sections were stained with hematoxylin/eosin and Hoechst 33342. The formation of intracellular vacuoles (stage I), tubules (stage II), and multicellular tubes and networks (stage III) were determined at 4 hr to 16 hr and 24 hr, respectively. The number of apoptotic cells were determined between 4 hr and 24 hr using double TUNEL/Hoechst staining. At least 200 cells were evaluated from an individual well. […] was quantified at 200 X magnification by counting four fields derived from triplicate wells. Subconfluent BEC cultures (34 days after subculture) were treated with H2O2 by adding it to the culture medium for 2 hr. To induce senescence, sublethal doses of H2O2 were determined and selected. […] H2O2-treated cells were subcultured and analyzed after 1, 2, 3, 4, 5, 6, 24, 48, 72, 96 and 120 hr for expression of different proteins involved in the cell cycle regulation and apoptosis. […]

AD BEC [1] = experiment: Apoptosis (TUNEL, caspase-3 positive cells) during AD BEC-mediated capillary morphogenesis; type: cell-based, human
Procedure: (§1) The 3-D system has been described in detail by Davis et al. (J. Cell Sci. 114:917-930, 2001). Here, the system was used to assay the responsiveness of AD BEC and SIPS BEC to angiogenic stimulation. Briefly, 10^6 MBEC/ml were suspended within 3-D collagen matrices at 25 μl per well in the serum-free culture medium 199 containing VEGF (40 ng/ml) and bFGF (40 ng/ml) in 5% CO2 at 37° C. The cells were fixed with 3% glutaraldehyde in phosphate buffered saline. The sections were stained with hematoxylin/eosin and Hoechst 33342. The formation of intracellular vacuoles (stage I), tubules (stage II), and multicellular tubes and networks (stage III) were determined at 4 hr to 16 hr and 24 hr, respectively. The number of apoptotic cells were determined between 4 hr and 24 hr using double TUNEL/Hoechst staining. At least 200 cells were evaluated from an individual well. […] was quantified at 200 X magnification by counting four fields derived from triplicate wells.
Staining with APO-BRDU kit was performed according to manufacturer's instructions (Phoenix Flow Systems).

AD BEC [2] = experiment: Brain capillary morphogenesis in 3-D collagen matrices (VEGF/bFGF) mediated by AD BEC; type: cell-based, human; settings: zVAD-fmk 50 μM, 24 hr, VEGF and bFGF 40 ng/ml
Procedure: as §1
(§2) ZVAD-fmk (50 μM, Sigma), p38 MAPK antagonists including SB SB202190 (SB, 10 μM), and plasma-derived activated protein C (APC, prepared by Dr. J. H. Griffin's laboratory, 5-100 nM) were used.

caspase 3 = experiment: Western blot of activated caspase-3 in AD BEC lysates during capillary morphogenesis; type: cell-based, human; settings: zVAD-fmk 50 μM, 24 hr
Procedure: Cell lysates were prepared from subconfluent BEC cultures, BEC at different stages of capillary morphogenesis or BEC exposed to SIPS (see below H2O2 model of SIPS). Antibodies for Western blot analysis included caspase 3, rabbit anti-human polyclonal, 1:100 (0.5 mg/ml, BD PharMingen); p53, mouse anti-human monoclonal, 1:200 (0.1 mg/ml, Oncogene); p16, mouse anti-human monoclonal, 1:250 (0.5 mg/ml, BD ParMingen); p21, mouse anti-human, 1:200 (0.4 mg/ml, Oncogene); Rb (Santa Cruz), p27 (Santa Cruz), fibronectin (Santa Cruz), PAI-1 (Santa Cruz) or phosphorylated p38 MAPK; gax, rabbit polyclonal against C-terminal region of the rat gax protein (amino acids SDHSSEHAHL), 1:500 (7 mg/ml, provided by Dr Kenneth Walsh); and β-actin, goat anti-human polyclonal, 1:2,500 (0.2 mg/ml, Santa Cruz Biotechnology). The secondary antibody was HRP-conjugated and peroxidase activity was detected with enhanced chemiluminescence detection kit (ECL, Pierce). The relative abundance of the primary antigen was determined by scanning densitometry using β-actin as an internal control.

AMC BEC = experiment: Tube formation in 2-D collagen matrigels, age-matched control BEC; type: cell-based, human; settings: 10 μM
Procedure: In 3D collagen gels (as described in FIG. 1), BEC that reached greater than 90% replicative senescence (RS) or were exposed to H2O2 (SIPS) formed an insignificant number of tubes (FIGS. 11A-11B, bar=50 μm). Total tube length—control BEC (arbitrarily taken as 100%) were compared to RS and SIPS BEC (FIG. 11C). The effect of SB202190 (SB, 10 μM for 1 hr) on SIPS-induced aberrant angiogenesis. Mean±s.e., n=9 assays per group from three different cases/group. In 2D collagen matrigels (growth factors per BD Biosciences, Bedford, Mass.), SB202190 (SB, 10 μM) increased the number of tubes in early passage AD BEC (FIGS. 11D-11E, bar=50 μm). SB202190 (SB, 10 μM) increases total tube length in both AMC and AD BEC (FIG. 11F). Mean±s.e., n=6-9 assays per group from two AMC and three AD cases.
In the 2-D system, collagen matrigels of matrix composition containing a supplement of growth factors were used according to manufacturer's instructions (BD Biosciences, Bedford, Mass.). In the 2-D matrix system, 2×10^4 cells/well were plated.
as §2

AD BEC [3] = experiment: Tube formation in 2-D collagen matrigels, AD BEC; type: cell-based, human; settings: 10 μM
Procedure: AD or age-matched control (AMC) BEC (2×10^4 cells/well) were plated in 2-D collagen matrigels (growth factors per BD Biosciences, Bedford, Mass.) and treated with 100 nM APC or vehicle (−APC). Total tube length was determined at 24 hr (FIG. 6A). Mean±s.e., n=30 to 40 assays per group from four AD and three AMC cases. AD or AMC BEC were treated with 100 nM APC, 100 nM boiled (B) APC, 100 nM serine mutant (M) APC, or vehicle (−APC) for 24 hr. Total tube length was determined at 24 hr (FIG. 6B). Mean±s.e., n=10 assays per group from one AD and one AMC case. % TUNEL-positive BEC at 4 hr during AD-mediated or AMC-mediated capillary morphogenesis in the presence of 100 nM APC or vehicle (−APC) was calculated (FIG. 6C). Mean±s.e., n=20 assays per group from two AD and two AMC cases. % Caspase-3-positive BEC at 4 hr of brain capillary morphogenesis in AD or AMC treated with 100 nM APC or vehicle (−APC) was calculated (FIG. 6D). Mean±s.e., n=20 assays per group from two AD and two AMC cases. AD BEC (3×10^4) cells were assayed for migration in a modified Boyden chamber in the presence of vehicle (−APC), 100 nM APC, anti-APC C3 monoclonal antibody (200 μg/ml), or anti-APC+APC after 6 hr of incubation (FIG. 6E). Mean±s.e., n=6 assays per group from two AD cases. […]

## OO [H2O2]
BEC; 300 μM for 2 hr, within 48 hr
  senescent phenotype (G1 arrest, flattened morphology, SA-β-gal): developed a senescent phenotype
BEC; concentrations higher than 300 μM, not shown
  BEC apoptosis: resulted in BEC apoptosis
SIPS BEC; compared to untreated normal control cells
  number of tubes formed by H2O2-treated (SIPS) BEC: form an insignificant number of tubes

## COC(=O)C[C@H](NC(=O)[C@H](C)NC(=O)[C@@H](NC(=O)OCc1ccccc1)C(C)C)C(=O)CF [zVAD-fmk] (Cbz-Val-Ala-Asp(OMe)-CH2F)
AD BEC [1]; during AD BEC-mediated capillary morphogenesis
  apoptosis in AD BEC: prevents apoptosis
AD BEC [1]; zVAD, data not shown
  number of apoptotic AD BEC by TUNEL staining: decreased
AD BEC [2]
  number of tubes: restored
  total tube length: restored
AD BEC [2]; listed as zVAD
  number of tubes: restoration
  total tube length: restoration
Caspase 3
  levels of activated form of caspase-3: preventing the formation of the active form of caspase 3; also recorded: reduced

## Oc1ccc(-c2nc(-c3ccncc3)c(-c3ccc(F)cc3)[nH]2)cc1 [SB202190]
AMC BEC
  total tube length, AMC BEC: increases
SIPS BEC; preincubation 10 μM for 1 hr, 3D collagen gels
  augmentation of total tube length in the SIPS model: ~5 fold
AD BEC [3]
  number of tubes in early passage AD BEC: completely restored; also recorded: increased
  total tube length, AD BEC: increases
